Test results as given in patent EP4782449A1, “TRICYCLIC PYRIDINE COMPOUND ACTING AS SARM1 ENZYME ACTIVITY INHIBITOR, AND USE THEREOF” (Artivila (ShenZhen) Innovation Center, Ltd., priority 2023, dated 2025).

Experiments:
[1] = tested on: dorsal root ganglion explants; test: Axonal Wallerian degeneration assay in mouse DRG explant culture; assay type: cell-based, C57BL/6 male mice; details: 10 µM test compound, 2 hours pretreatment, axons transected, images at 0 hour and 24 hours
Excerpt: The experimental method was based on Gerdts J et al. (Gerdts J, Sasaki Y, Vohra B, Marasa J, Milbrandt J. Image-based screening identifies novel roles for IkappaB kinase and glycogen synthase kinase 3 in axonal degeneration. J Biol Chem. 2011 Aug 12;286(32):28011-8).
Dorsal root ganglia were dissected from 2-month-old C57BL/6 male mice and placed in 35 mm culture dishes containing pre-cooled HBSS buffer. Excess tissue from each dorsal root ganglion was removed and cut into 2-3 explants using a scalpel, and the explants were planted in wells of a 96-well plate coated with 100 ng/mL Matrigel (Corning). 100 µL of DRG culture medium (Neurobasal medium (Gibco) containing 2% B-27 (Gibco), 1% GlutaMax (Gibco), and 10 ng/mL NGF (MCE)) was added, then cultured in a 37°C incubator for one week, with medium change on day 4, and experiments were performed on day 8.
0.1 µL of 10 mM test compound was dissolved in 100 µL DRG culture medium to prepare new culture medium containing 10 µM test compound. The culture medium in the 96-well plate was aspirated and new culture medium containing the test compound was added. Then the dorsal root ganglion explants were incubated with the medium in a 37°C incubator for 2 hours for pre-protection. After 2-hour pretreatment, a glass electrode was used to transect axons in the area near the tissue block, and bright-field images of axons in the same area were captured at 0 hour and 24 hours post axonal degeneration using a 20x objective lens of a microscope (Olympus). Axonal integrity was evaluated using an in-house developed script.

[2] = target: T1, SARM1 (Homo sapiens, UniProt Q6SZW1); test: In vitro biochemical assay for inhibiting SARM1 enzyme activity (PC6 fluorescence, NADase); details: full-length SARM1 from transfected HEK293 cells; 50 µM NAD, 50 µM PC6, 50 µM NMN activator; room temperature, 30 minutes; read-out: IC50
T1 construct: inventors produced full-length SARM1 for NAD enzyme activity experiments, and used it for screening; His (C); made in house; host or cells: HEK293 cells, transient transfection; supernatant of digitonin lysate, no further purification described
T1 sequence (Q6SZW1 28-724): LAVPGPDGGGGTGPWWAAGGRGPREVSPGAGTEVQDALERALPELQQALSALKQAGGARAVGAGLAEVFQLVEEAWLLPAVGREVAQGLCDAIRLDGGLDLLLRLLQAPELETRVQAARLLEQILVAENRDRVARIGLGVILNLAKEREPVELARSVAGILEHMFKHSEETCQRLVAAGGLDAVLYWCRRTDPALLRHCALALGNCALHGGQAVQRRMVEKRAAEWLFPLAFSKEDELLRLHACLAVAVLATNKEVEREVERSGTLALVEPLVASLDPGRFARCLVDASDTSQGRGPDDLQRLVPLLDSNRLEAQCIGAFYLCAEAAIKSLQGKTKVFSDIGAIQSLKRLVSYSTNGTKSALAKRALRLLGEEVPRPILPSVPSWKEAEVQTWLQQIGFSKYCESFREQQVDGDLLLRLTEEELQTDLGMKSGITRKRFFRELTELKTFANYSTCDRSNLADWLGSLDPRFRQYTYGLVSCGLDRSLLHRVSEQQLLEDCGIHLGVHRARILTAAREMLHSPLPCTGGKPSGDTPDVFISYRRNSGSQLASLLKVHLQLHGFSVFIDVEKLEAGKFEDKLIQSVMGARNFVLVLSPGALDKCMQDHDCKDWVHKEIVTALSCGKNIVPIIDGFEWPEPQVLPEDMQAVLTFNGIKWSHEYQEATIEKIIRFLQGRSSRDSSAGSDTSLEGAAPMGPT
Experimental: The gene sequence of SARM1 protein was amplified using PCR, and the PCR amplification product was constructed into pcDNA3.1-HIS-C plasmid. The above construction was completed by YouBio(Hunan, China). HEK293 cells were cultured in 10 cm dishes using DMEM, and the cells were transfected with 15 μg pcDNA3.1-SARM[…]-C expression plasmid on the following day. Cells were collected 48 hours after transfection, and SARM1 protein expressed in the cells was obtained by digitonin lysis for in vitro activity assay experiments. The specific procedure was as follows: Cells were digested with trypsin-EDTA, then centrifuged at 1000 rpm for 5 minutes, washed once with PBS, and then resuspended in PBS containing 100 μM digitonin, with 0.6 mL PBS for the cells in per 10 cm dish, and lysed for 5 minutes. […] Then the supernatant containing SARM1 protein was collected by centrifugation at 5000 rpm for 10 minutes. […] A group without inhibitor was used as control group. All mixtures were incubated at room temperature for 10 minutes. Then, 50 μM NAD and 50 μM PC6 as substrates and 50 μM NMN as an activator were added to the SARM1 protein incubated with the inhibitor, and the reaction was carried out at room temperature for 30 minutes. The concentrations of each component were the final concentrations in the reaction system. […] Finally, the reaction rate was used to represent the protein activity and calculate the half-maximal inhibitory concentration.

| SMILES | IC50 [2] | Degree of Protection Against Axonal Wallerian Degeneration [1] |
| --- | --- | --- |
| O=C1C(Cc2ccc(Cl)cc2)CCN1c1ccc2c(c1)COc1cnccc1-2 (stereo not drawn) [Compound 1, 3-(4-chlorobenzyl)-1-(6H-isochromeno[3,4-c]pyridin-8-yl)pyrrolidin-2-one] | < 0.1 µM | A (substantial protection (A) >50%) |
| O=C1C(Cc2ccccc2)CCN1c1ccc2c(c1)COc1cnccc1-2 (stereo not drawn) [Compound 2, 3-benzyl-1-(6H-isochromeno[3,4-c]pyridin-8-yl)pyrrolidin-2-one] | 0.1 to 1 µM | A (substantial protection (A) >50%) |
| O=C1C(Cc2ccc(Cl)cc2F)CCN1c1ccc2c(c1)COc1cnccc1-2 (stereo not drawn) [Compound 3] | 1 to 10 µM | – |
| O=C1C(Cc2cc(F)cc(F)c2)CCN1c1ccc2c(c1)COc1cnccc1-2 (stereo not drawn) [Compound 4] | 0.1 to 1 µM | A (substantial protection (A) >50%) |
| O=C1C(Cc2cc(F)c(F)c(F)c2)CCN1c1ccc2c(c1)COc1cnccc1-2 (stereo not drawn) [Compound 5] | 1 to 10 µM | A (substantial protection (A) >50%) |
| O=C1C(Cc2ccc(Cl)s2)CCN1c1ccc2c(c1)COc1cnccc1-2 (stereo not drawn) [Compound 7] | 1 to 10 µM | A (substantial protection (A) >50%) |
| Cc1ccc(CC2CCN(c3ccc4c(c3)COc3cnccc3-4)C2=O)cc1 (stereo not drawn) [Compound 8] | 1 to 10 µM | – |
| O=C1C(Cc2cccc(Cl)c2)CCN1c1ccc2c(c1)COc1cnccc1-2 (stereo not drawn) [Compound 9] | 1 to 10 µM | A (substantial protection (A) >50%) |
| O=C1C(Cc2ccc(F)cc2F)CCN1c1ccc2c(c1)COc1cnccc1-2 (stereo not drawn) [Compound 11] | 1 to 10 µM | A (substantial protection (A) >50%) |
| O=C1C(Cc2ccc(Cl)o2)CCN1c1ccc2c(c1)COc1cnccc1-2 (stereo not drawn) [Compound 12] | 0.1 to 1 µM | B (partial protection (B): 20% to 50%) |
| O=C1C(Cc2ccc(C(F)(F)F)cc2)CCN1c1ccc2c(c1)COc1cnccc1-2 (stereo not drawn) [Compound 14] | 1 to 10 µM | – |
| N#Cc1ccc(CC2CCN(c3ccc4c(c3)COc3cnccc3-4)C2=O)cc1 (stereo not drawn) [Compound 16] | 1 to 10 µM | A (substantial protection (A) >50%) |
| O=C1C(Cc2ccc(Cl)nc2)CCN1c1ccc2c(c1)COc1cnccc1-2 (stereo not drawn) [Compound 17] | 0.1 to 1 µM | B (partial protection (B): 20% to 50%) |
| O=C1C(Cc2cc(F)c(Cl)c(F)c2)CCN1c1ccc2c(c1)COc1cnccc1-2 (stereo not drawn) [Compound 18] | 1 to 10 µM | B (partial protection (B): 20% to 50%) |
| O=C(CCc1cc(F)c(Cl)c(F)c1)Nc1ccc2c(c1)COc1cnccc1-2 [Compound 43] | < 0.1 µM | – |
| N#Cc1c(F)cc(CCC(=O)Nc2ccc3c(c2)COc2cnccc2-3)cc1F [Compound 44] | < 0.1 µM | – |
| O=C(NCc1cc(F)cc(F)c1)Nc1ccc2c(c1)COc1cnccc1-2 [Compound 48] | 0.1 to 1 µM | – |
| O=C1C(Cc2ccc(F)cc2)CCN1c1ccc2c(c1)COCc1cnccc1-2 (stereo not drawn) [Compound 53, 1-(5,7-dihydrobenzo[5,6]oxepino[3,4-c]pyridin-9-yl)-3-(4-fluorobenzyl)pyrrolidin-2-one] | 1 to 10 µM | – |
| O=C1C(Cc2ccc3ocnc3c2)CCN1c1ccc2c(c1)COc1cnccc1-2 (stereo not drawn) [Compound 61] | 0.1 to 1 µM | – |
| O=C(NCc1ccc2c(c1)OCO2)Nc1ccc2c(c1)COc1cnccc1-2 [Compound 64] | 1 to 10 µM | – |
| O=C(CCc1ccc2c(c1)CCO2)Nc1ccc2c(c1)COc1cnccc1-2 [Compound 83] | 0.1 to 1 µM | – |
| CC(C)c1cncc2c1-c1ccc(NC(=O)CCc3ccc(F)cc3)cc1CO2 [Compound 141] | 1 to 10 µM | – |
| C=Cc1ccc(CC2CCN(c3ccc4c(c3)COc3cnccc3-4)C2=O)cc1 (stereo not drawn) [Compound 149] | 1 to 10 µM | – |
| CN(Cc1ccc(F)cc1)C(=O)Nc1cnc2c(c1)COc1cnccc1-2 [Compound 153] | < 0.1 µM | – |

Second part, led by results:

| IC50 [2] | SMILES | Degree of Protection Against Axonal Wallerian Degeneration [1] |
| --- | --- | --- |
| < 0.1 µM | O=C1C(Cc2ccc(F)cc2)CCN1c1ccc2c(c1)COc1cnccc1-2 (stereo not drawn) [Compound 10, 3-(4-fluorobenzyl)-1-(6H-isochromeno[3,4-c]pyridin-8-yl)pyrrolidin-2-one] | A (substantial protection (A) >50%) |
| < 0.1 µM | O=C(CCc1ccc2c(c1)OCO2)Nc1ccc2c(c1)COc1cnccc1-2 [Compound 20] | – |
| 1 to 10 µM | O=C(CCc1ccc([N+](=O)[O-])cc1)Nc1ccc2c(c1)COc1cnccc1-2 [Compound 23] | – |
| 0.1 to 1 µM | O=C(CCc1ccc(OC(F)(F)F)cc1)Nc1ccc2c(c1)COc1cnccc1-2 [Compound 24] | – |
| < 0.1 µM | O=C(CCc1ccc(Cl)nc1)Nc1ccc2c(c1)COc1cnccc1-2 [Compound 26] | – |
| < 0.1 µM | O=C(CCc1cccc(Cl)c1)Nc1ccc2c(c1)COc1cnccc1-2 [Compound 31] | – |
| 0.1 to 1 µM | O=C(Nc1ccc2c(c1)COc1cnccc1-2)C(F)Cc1ccc(Cl)cc1 (stereo not drawn) [Compound 35] | – |
| < 0.1 µM | O=C(CCc1ccccc1)Nc1ccc2c(c1)COc1cnccc1-2 [Compound 38] | – |
| 1 to 10 µM | CN(C(=O)CCc1ccc(F)cc1)c1ccc2c(c1)COc1cnccc1-2 [Compound 49, 3-(4-fluorophenyl)-N-(6H-isochromeno[3,4-c]pyridin-8-yl)-N-methylpropanamide] | – |
| 1 to 10 µM | O=C(Cc1ccc(F)cc1)Nc1ccc2c(c1)COc1cnccc1-2 [Compound 51] | – |
| 0.1 to 1 µM | NC(Cc1ccc(F)cc1)C(=O)Nc1ccc2c(c1)COc1cnccc1-2 (stereo not drawn) [Compound 52, 2-amino-3-(4-fluorophenyl)-N-(6H-isochromeno[3,4-c]pyridin-8-yl)propanamide] | – |
| 0.1 to 1 µM | O=C(NCc1ccc(Cl)nc1)Nc1ccc2c(c1)COc1cnccc1-2 [Compound 66] | – |
| 1 to 10 µM | O=C(NCc1cccc(Cl)c1)Nc1ccc2c(c1)COc1cnccc1-2 [Compound 69] | – |
| 1 to 10 µM | CN(C)c1ccc(CCC(=O)Nc2ccc3c(c2)COc2cnccc2-3)cc1 [Compound 79] | – |
| 1 to 10 µM | O=C(CCc1ccc2ccccc2c1)Nc1ccc2c(c1)COc1cnccc1-2 [Compound 81] | – |
| 1 to 10 µM | O=C(CCc1cccc2ccccc12)Nc1ccc2c(c1)COc1cnccc1-2 [Compound 82] | – |
| 1 to 10 µM | Cc1c(NC(=O)CCc2ccc(F)cc2)ccc2c1COc1cnccc1-2 [Compound 131, 3-(4-fluorophenyl)-N-(7-methyl-6H-isochromeno[3,4-c]pyridin-8-yl)propanamide] | – |
| < 0.1 µM | C#Cc1ccc(CCC(=O)Nc2ccc3c(c2)COc2cnccc2-3)cc1 [Compound 148] | – |
| < 0.1 µM | O=C1N(Cc2ccc(F)cc2)CCN1c1ccc2c(c1)COc1cnccc1-2 [Compound 150] | – |
| < 0.1 µM | O=C1[C@H](Cc2ccc(F)cc2)CCN1c1ccc2c(c1)COc1cnccc1-2 [Compound 154] | – |
| < 0.1 µM | O=C1[C@@H](Cc2ccc(F)cc2)CCN1c1ccc2c(c1)COc1cnccc1-2 [Compound 155] | – |
